In patent publication EP4571306A1, “STABILIZING OXYGEN IN A COMPOSITION” (priority 2023, dated 2025):

Method: To test for sensor stability and performance, a cartridge use life test was completed after one month of cartridge shelf-life and then repeated after eight months of cartridge shelf-life.
Additionally, reagent performance on the GEM® Premier™ 5000 system was evaluated based on drift of parameters for assays performed on the GEM® Premier™ 5000 system. Drift for each assay parameter constitutes a deviation of measured results for each assay parameter from its factory assigned target. For example, ρO2 was measured several times during cartridge use at a defined frequency on the GEM® Premier™ 5000, and the drift was calculated for each measurement as the difference between measured […] for a composition and the ρO2 assigned to the composition at manufacture.
In this experiment, the control containers were confirmed to contain limited or no metal contamination (e.g., in parts-per-billion, cobalt 0.10, chromium 2.24, copper 0.64, iron 3.23, and manganese 0.63). The limits columns represents the maximum change that can occur during composition shelf-life according to the GEM® Premier™ 5000 design specifications.

SMILES: C[C@H]1COc2c(N3CCN(C)CC3)c(F)cc3c(=O)c(C(=O)O)cn1c23 [levofloxacin]
- effect on sensor performance and the performance and stability of the compositions: does not negatively affect sensor performance
